In article PMC8113231 (Nature Communications, 2021):
Where a SMILES comes first, the peptide text is derived from it. Bridges are numbered along the chain shown (N, C = ends). [ ]: non-standard residue; d: D form. NMeF = CN[C@@H](Cc1ccccc1)C(=O)O; NMeS = CN[C@@H](CO)C(=O)O; Sar = CNCC(=O)O

Tests used:
[1] = in vitro; settings: human, serum
[2] = system: A/duck/Hokkaido/Vac-3/07 (H5N1/Vac-3); test: microbe, parasite or virus in culture; assay type: cell-based, influenza A virus
[3] = system: H5N1/Vac-3; assay type: cell-based, influenza A virus
[4] = system: HA on H2N2 virions; assay type: binding, influenza A virus
[5] = system: chicken red blood cells
[6] = system: H1N1/Tokyo2619; assay type: cell-based, influenza A virus
[7] = system: HA on H1N1 virions; assay type: binding, influenza A virus
[8] = system: A/whooper swan/Hokkaido/1/08 (H5N1); set-up: species or system BALB/c mice; settings: mouse, in vivo, 1.9 mg/kg/day
[9] = system: A/Vietnam/UT3040/2004 (H5N1/Vietnam); set-up: species or system cynomolgus monkeys; settings: cynomolgus monkey, in vivo
[10] = system: HA from A/California/07/2009 (H1N1); assay type: cell-based, influenza A virus

With `CC(C)[C@@H]1NC(=O)[C@H]([C@@H](C)O)NC(=O)[C@H](Cc2ccc(O)cc2)NC(=O)[C@H](Cc2c[nH]cn2)NC(=O)[C@H](CO)N(C)C(=O)[C@H](CO)NC(=O)[C@H](Cc2ccccc2)N(C)C(=O)[C@H](Cc2ccccc2)N(C)C(=O)[C@H](CC(=O)O)NC(=O)CN(C)C(=O)[C@H]([C@@H](C)O)NC(=O)[C@H](Cc2c[nH]c3ccccc23)NC(=O)CSC[C@@H](C(N)=O)NC(=O)[C@H](CCCNC(=N)N)NC(=O)[C@@H]2CCCN2C1=O` [iHA-100] ({CH2CO}-WT[Sar]D[NMeF][NMeF]S[NMeS]HYTVPRC-NH2; thioether N-15) the half-life [1] was about 3.85 h, the “Plaque formation of H5N1/Vac-3 (screen of 28 candidates)” value [2] was “inhibited plaque formation” and the “Size of viral plaques” value [2] was “reduced the size of viral plaques”. The “H5N1/Vac-3 virus-mediated RBC membrane fusion” value [3] was “inhibited by iHA-100 in a dose-dependent manner”, the “Binding to HA on H2N2 virions (pull-down)” value [4] was “bound to HA” and the Inhibition of hemagglutination [5] was “could not”. For the same molecule, the “H1N1/Tokyo2619 virus-mediated RBC membrane fusion” value [6] was “inhibited by iHA-100 in a dose-dependent manner”, the “Binding to HA on H1N1 virions (pull-down)” value [7] was “bound to HA” and the “Progression of pneumonia (histopathology)” value [8] was “prevented the progression of pneumonia”. For the same molecule, the Survival [8] was 40%, the “Survival rate, administration started 0 days after infection” value [8] was “comparable with the survival rate in the zanamivir-treated group” and the “Viral replication in the lungs” value [8] was “significantly suppressed”. For the same molecule, the “Virus-related increase in lung weight” value [8] was “significantly suppressed”, the “IFN-γ in the lungs” value [9] was “significantly reduced” and the “IL-6 in the lungs” value [9] was “significantly reduced”. For the same molecule, the “IL-15 in the lungs” value [9] was “decreased”, the “Virus titers in autopsy lung samples at 7 dpi” value [9] was “low virus titers in the lungs of two monkeys” and the Body temperature ([9]; 3 mg/kg/day) was “returned to a normal range”. For the same molecule, the Bodyweight loss ([9]; 3 mg/kg/day) was “relatively attenuated”, the Lung weights ([9]; 3 mg/kg/day) was “relatively lower” and the “Virus in nasal, oral and bronchial swabs” value ([9]; 3 mg/kg/day) was “disappeared at 3–6 dpi”. The “Virus shedding after treatment (3–7 dpi), area under the curve” value ([9]; po) was “significantly lower virus shedding” and the “Polykaryon formation mediated by H1 HA” value [10] was “significantly inhibited”.
